Assay results reported in patent US8871760B2, “[1,2,4]triazolo[3,4-C][1,4]oxazines as P2X7 modulators” (Roche Palo Alto LLC, priority 2009, dated 2014).

Columns and labels:
human P2X7 = molecular target: T1, human P2X7 (UniProt Q99572); assay: Intracellular Calcium Flux (FLIPR) Assay; assay type: cell-based
T1 sequence (Q99572 1-595): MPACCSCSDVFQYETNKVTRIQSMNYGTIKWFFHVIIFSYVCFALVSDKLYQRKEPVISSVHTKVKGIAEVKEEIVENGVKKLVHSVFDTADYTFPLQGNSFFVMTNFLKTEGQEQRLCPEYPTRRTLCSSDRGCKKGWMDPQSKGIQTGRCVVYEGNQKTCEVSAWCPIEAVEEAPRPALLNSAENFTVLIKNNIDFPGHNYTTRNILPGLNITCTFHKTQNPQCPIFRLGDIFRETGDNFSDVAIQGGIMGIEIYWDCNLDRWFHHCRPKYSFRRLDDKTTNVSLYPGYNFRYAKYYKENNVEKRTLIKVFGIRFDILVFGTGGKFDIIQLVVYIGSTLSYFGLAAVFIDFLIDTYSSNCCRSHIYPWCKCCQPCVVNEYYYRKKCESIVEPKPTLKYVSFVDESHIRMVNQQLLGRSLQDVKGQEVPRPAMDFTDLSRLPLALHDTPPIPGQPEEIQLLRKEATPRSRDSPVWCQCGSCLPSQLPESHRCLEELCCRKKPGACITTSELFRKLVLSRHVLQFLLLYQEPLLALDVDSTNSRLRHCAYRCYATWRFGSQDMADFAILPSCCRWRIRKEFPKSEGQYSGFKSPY
Protocol: Intracellular Calcium Flux (FLIPR) Assay
Compound and Reagent Preparation
Stock solutions of compounds were prepared from powders as a 10 mM DMSO stock solution. These solutions were stored at RT during the two week period of these experiments to prevent freeze-thaw of the DMSO stocks. The DMSO stocks were added to the appropriate assay buffer at a concentration of 10 μM, and then diluted serially to the final concentrations that were tested. No observable precipitate was formed at any time during this process. The aqueous solutions of compounds as well as ATP (Sigma A7699) and BzATP (Sigma B6396) were prepared fresh for each day of experiment.
1321N1 cells stably expressing the full length human P2X7 gene (1321N1-hP2X7) and HEK293 cells stably expressing the full length rat P2X7 gene (HEK293-rP2X7) were obtained from the Roche Cell Culture Facility. 1321N1-hP2X7 cells were grown in Dulbecco's Modified Eagle's Medium (DMEM) high glucose supplemented with 10% FBS and […] G418. HEK293-rP2X7 cells were grown in DMEM/F-12 supplemented with 10% FBS, 1 mM CaCl2, 2 mM MgCl2, 2 mM L-Glutamine and […] G418. Cells were split such that they never became >70% confluent.
Intracellular Calcium Flux (FLIPR)
On the day prior to the experiment, 1321N1-hP2X7 or HEK293-rP2X7 cells were released into suspension with calcium-free PBS+Versene and washed by centrifugation with calcium-free PBS to remove the Versene. Cells were resuspended in growth medium at a density of 2.5×10^5 cells/mL and seeded into black walled, clear bottom 96 well plates (50,000 cells/well) approximately 18 hr prior to intracellular calcium flux experiments.
On the day of the experiment, plates were washed with FLIPR buffer (calcium- and magnesium-free Hank's Balanced Salt Solution (HBSS) supplemented with 10 mM Hepes, 2.5 mM probenecid and 2 mM calcium chloride) using a BIO-TEK 96 channel plate washer and incubated with […] fluo-3 dye at 37° C. for one hr. The dye was then removed by plate washing and the cells were allowed to equilibrate for 20 min at room temperature with antagonist or vehicle (FLIPR buffer). Agonist (100 μM BzATP final concentration for hP2X7; 5 μM BzATP final concentration or rP2X7) was added online with the FLIPR and fluorescence measurements made at 1 sec intervals for 60 sec followed by 3 sec intervals for a further 4 min (5 min total). A final addition of 5 μM ionomycin was made and the maximal BzATP-evoked fluorescence normalized to the maximal ionomycin-evoked fluorescence.

| melting point | pIC50 (human P2X7) | Compound |
| --- | --- | --- |
| 165 to 166 °C | 7.58 | COc1cc(C)c(Nc2nnc3n2C(c2ccc(F)cc2)CSC3)cc1OC (centres unmarked) [Compound 18, (4,5-Dimethoxy-2-methyl-phenyl)-[5-(4-fluoro-phenyl)-5,6-dihydro-8H-[1,2,4]triazolo[3,4-c][1,4]thiazin-3-yl]-amine] |
| 226 to 227 °C | 6.96 | COc1cc(C)c(Nc2nnc3n2C(c2ccc(F)cc2)CS(=O)(=O)C3)cc1OC (centres unmarked) [Compound 19, (4,5-Dimethoxy-2-methyl-phenyl)-[5-(4-fluoro-phenyl)-7,7-dioxo-5,6,7,8-tetrahydro-7λ^6-[1,2,4]triazolo[3,4-c][1,4]thiazin-3-yl]-amine] |
| 161 to 162 °C | 7.59 | Cc1cc(Cl)c(OCCO)cc1Nc1nnc2n1[C@H](c1ccc(F)cc1)COC2 [Compound 21, 2-{2-Chloro-5-[(R)-5-(4-fluoro-phenyl)-5,6-dihydro-8H-[1,2,4]triazolo[3,4-c][1,4]oxazin-3-ylamino]-4-methyl-phenoxy}-ethanol] |
| 215 to 217 °C | 7.605 | Cc1cc2cnn(CCO)c2cc1Nc1nnc2n1[C@H](c1ccc(F)cc1)COC2 [Compound 39, 2-{6-[(R)-5-(4-Fluoro-phenyl)-5,6-dihydro-8H-[1,2,4]triazolo[3,4-c][1,4]oxazin-3-ylamino]-5-methyl-indazol-1-yl}-ethanol] |
